What is called EC50 is the concentration that produces a half-maximal response.

The structures appear in SMILES notation.

In this test the test system is human FXN. Briefly: FXN mRNA expression by qRT-PCR in GM15850 cells after 48 hr compound treatment. Format: cell-based. The settings on record: Homo sapiens; GM15850 cells, 48 hr incubation, hFXN normalized to hGAPDH; read-out: EC50 WT (nM, 48 hr). Background: Real-time PCR tracks product formation cycle by cycle.

As to `Cc1sc2c(c1C)C(c1ccc(Cl)cc1)=N[C@@H](CC(=O)Nc1cccc(OCCOCCOCCOCCOCCOCCC(=O)NCCCN(C)CCCNC(=O)CCNC(=O)c3nc(NC(=O)CCNC(=O)c4cc(NC(=O)c5nc(NC(=O)CCNC(=O)c6cc(NC(=O)c7nccn7C)cn6C)cn5C)cn4C)cn3C)c1)c1nnc(C)n1-2` [Compound 62], the EC50 was less than 100 nM.

In the case of `Cc1sc2c(c1C)C(c1ccc(Cl)cc1)=N[C@@H](CC(=O)Nc1ccc(CCCOCCOCCOCCOCCOCCC(=O)NCCCN(C)CCCNC(=O)CCNC(=O)c3nc(NC(=O)CCNC(=O)c4cc(NC(=O)c5nc(NC(=O)CCNC(=O)c6cc(NC(=O)c7nccn7C)cn6C)cn5C)cn4C)cn3C)cc1)c1nnc(C)n1-2` [Compound 60], the EC50 was 100 to 500 nM.

On to `CC(=O)N1c2ccc(-c3ccc(C(=O)NCCOCCOCCOCCOCCOCCOCCOCCOCCNC(=O)c4nc(NC(=O)CCNC(=O)c5cc(NC(=O)c6nc(NC(=O)CCNC(=O)c7cc(NC(=O)c8nc(NC(=O)CCNC(=N)N)cn8C)cn7C)cn6C)cn5C)cn4C)cc3)cc2[C@H](Nc2ccc(Cl)cc2)C[C@@H]1C` [Compound 86, N-[5-([2-[(2-[[26-([4-[(2S,4R)-1-acetyl-4-[(4-chlorophenyl)amino]-2-methyl-3,4-dihydro-2H-quinolin-6-yl]phenyl]formamido)-3,6,9,12,15,18,21,24-octaoxahexacosan-1-yl]carbamoyl]-1-methylimidazol-4-yl)carbamoyl]ethyl]carbamoyl)-1-methylpyrrol-3-yl]-4-[3-([4-[4-(3-carbamimidamidopropanamido)-1-methylimidazole-2-amido]-1-methylpyrrol-2-yl]formamido)propanamido]-1-methylimidazole-2-carboxamide], for which the concentration for a half-maximal effect (EC50) is more than 500 nM.

Regarding `CCCNC(=O)c1nc(NC(=O)CCNC(=O)c2cc(NC(=O)c3nc(NC(=O)CCNC(=O)c4cc(NC(=O)c5nc(NC(=O)CCNC(=O)COCCOCCOCCOCCOCCOCCOCCOc6ccc(NC(=O)C[C@@H]7N=C(c8ccc(Cl)cc8)c8c(sc(C)c8C)-n8c(C)nnc87)cc6)cn5C)cn4C)cn3C)cn2C)cn1C` [Compound 51], the concentration giving a half-maximal response (EC50) was less than 100 nM.

`Cc1cc(-c2nc3cnc(C4CCN(C(=O)COCCOCCOCCOCCOCCC(=O)NCCCN(C)CCCNC(=O)CCNC(=O)c5nc(NC(=O)CCNC(=O)c6cc(NC(=O)c7nc(NC(=O)CCNC(=O)c8cc(NC(=O)c9nccn9C)cn8C)cn7C)cn6C)cn5C)CC4)cc3n2[C@@H](C)c2ccccc2)nn(C)c1=O` [Compound 19]: the concentration for a half-maximal effect (EC50) is less than 100 nM.

These data come from US20240050576A1, “METHODS AND COMPOUNDS FOR THE TREATMENT OF GENETIC DISEASE” (Design Therapeutics, Inc., priority 2020, published 2024).
